{"source": "patent US10201585B2", "about": "“Methods for treatment of atherosclerosis” (Stealth Peptides International, Inc., priority 2012, dated 2019)", "key": {"fibroblast cells": {"tested_on": "fibroblast cells", "experiment": "Coenzyme Q10 levels in fibroblasts treated with peptide", "assay_type": "cell-based", "conditions": "10 nM peptide for 16-24 hours or 5 days, DMEM, versus saline treated (FIG. 5)", "protocol": "Fibroblasts were treated with an aromatic-cationic peptide of the present disclosure, and levels of coenzyme Q10 were evaluated.\nFibroblasts were culture by methods known in the art, and treated with the aromatic-cationic peptide D-Arg-2′6′-Dmt-Lys-Phe-NH2 as shown in Table 11 below. Data represents the average n=3-6.\nCoenzyme Q10 levels were evaluated by methods known in the art."}, "[1]": {"tested_on": "Apoprotein E deficient mice", "experiment": "Plasma lipoprotein cholesterol by gel electrophoresis (Spife; HDL-C, LDL-C, VLDL-C)", "assay_type": "in vivo", "source_text": "(§1) Apoprotein E deficient mice (Jackson Laboratories, 600 Main Street, Bar Harbor, Me.) were used in this study. The mice were male, 7-8 weeks of age, and between 18-20 g in weight. An initial total cholesterol measurement was made on 30 mice, and the mice were grouped into two groups of 15 to match the total cholesterol measurements. Both groups were fed a “western diet” (40 kcal % butterfat, 0.15% [wt/wt] cholesterol, Harlan Teklad diet TD-88137). Starting at t=0, the control group of 15 mice received vehicle only (phosphate buffered saline at pH 7.4), while the test group of 15 mice received aromatic-cationic peptide reconstituted in phosphate buffered saline. Body weights of the mice were recorded weekly, and mortality checks were performed daily.\n(§2) The aromatic-cationic peptide D-Arg-2′6′-Dmt-Lys-Phe-NH2 (sterile lyophilized powder, reconstituted in phosphate buffered saline) was tested. For the 12-week study, test mice received a single, daily dose of the peptide, subcutaneously at 1 mg/kg. Control mice received a single daily dose of vehicle.\nBlood was collected every four weeks (orbital plexis) under isoflurane anesthesia (3%) and blood lipids were determined. Plasma lipid analysis was conducted for both groups at t=0, 4, 6, 8, and 12 weeks. Plasma lipid analysis using an autoanalyzer included total cholesterol (TC), triglycerides (Trigs), phospholipids (PL), free cholesterol (FC), and cholesterol ester (CE, by calculation). Gel electrophoresis was used to measure levels of high-density lipoprotein cholesterol (HDL-C), low-density lipoprotein cholesterol (LDL-C), and very low-density lipoprotein cholesterol (VLDL-C)."}, "[2]": {"tested_on": "Apoprotein E deficient mice", "experiment": "Thoracic aorta lipids (Bligh-Dyer extraction, WAKO kits; TC, FC, CE per mg protein)", "assay_type": "in vivo", "source_text": "as §1, §2\nFollowing the 12 week treatment, mice were euthanized within 48 hours after the last dose by CO2 asphyxiation and the vascular tree was perfused with 5 mL of phosphate buffered saline (pH 7.4). The aorta and aortic sinus were removed for examination. Thoracic aorta were isolated, trimmed of fat, and fixed in formalin for 48-72 hours before analysis. For en face analysis, aortas were laid out and pinned on black matrix for photography, and stained with Sudan IV. Vessels were imaged for surface involvement using a Nikon computerized image analysis system and the percent of the aortic surface area covered by lipid was calculated. Two determinations were done for each image (Quan 1 and Quan 2), and the average was computed. The data were then computed by group and statistically analyzed. Following staining and morphometric analysis, total lipids were extracted from the aortas using the Bligh-Dyer method. WAKO Diagnostics kits (WAKO Diagnostics, Inc., 1600 Bellwood Road Richmond, Va. 23237-1326) were then used to evaluate total cholesterol, free cholesterol, and cholesterol ester. Cholesterol levels were quantitate nad expressed relative to protein levels. Values are expressed as μg lipid per mg protein (see e.g., FIG. 1)."}, "[3]": {"tested_on": "Apoprotein E deficient mice", "experiment": "Total lesion area in aortic root 300 μm across aortic valve (cryosections, lipid staining)", "assay_type": "in vivo", "set-up": "Total lesion area in aortic root 300 μm across aortic valve / Total lesion area in aortic root 300 μm across aortic valve, AVE: unit not given here", "source_text": "as §1\nThe aromatic-cationic peptide D-Arg-2′6′-Dmt-Lys-Phe-NH2 (sterile lyophilized powder, reconstituted in phosphate buffered saline) was tested. […]\nFor the aortic sinus, the heart and approximately 5 mm of the ascending aorta was cut from the remainder of the aorta. […] The sinus was imaged at 5 step levels in the region of interest, i.e., the aortic root, for a total distance of 300 μm and the lipid-staining areas and measured (total cross sectional area) using a Nikon computerized image analysis system. The data were then computed by group and statistically analyzed."}, "[4]": {"conditions": "Week 0 (baseline), group mean of 15 test mice, vehicle group 25"}, "[5]": {"conditions": "Week 0 (start of treatment, baseline), individual mouse of peptide group (sample 16-30)"}, "[6]": {"conditions": "Week 4, individual test mice (sample # 16-30), listed as aromatic-cationic peptide"}, "[7]": {"conditions": "Week 8, individual test mice (sample # 16-30), listed as aromatic-cationic peptide"}, "[8]": {"conditions": "Week 12, AVE of test mice 16-30"}, "[9]": {"conditions": "Week 12, individual test mice (sample # 16-30), listed as aromatic-cationic peptide"}, "[10]": {"conditions": "treated versus vehicle at 4, 8 and 12 week time points"}, "[11]": {"conditions": "treated versus vehicle, 12 weeks (Table 8, FIG. 2)"}, "[12]": {"conditions": "μg lipid per mg protein, peptide 1 mg/kg s.c. daily, 12 weeks, individual mouse (sample 16-30)"}}, "note": "Several values for one entry are separate records, joined by “and”; a condition that tells them apart may be missing. Identical values can stand only once. Entries after “also recorded” stand apart in the source; their conditions may differ.", "data": [{"substance": "D-Arg-2′6′-Dmt-Lys-Phe-NH2", "values": [{"measurement": "Coenzyme Q10 levels in fibroblast cells", "setting": "fibroblast cells", "result": "increased"}, {"measurement": "Plasma HDL-C, AVE", "setting": "[1]; [4]", "result": 28, "unit": "mg/dL"}, {"measurement": "Plasma VLDL-C, AVE", "setting": "[1]; [4]", "result": 26, "unit": "mg/dL"}, {"measurement": "Plasma LDL-C, AVE", "setting": "[1]; Week 0 (baseline), group mean of 15 test mice, vehicle group 362", "result": 368, "unit": "mg/dL"}, {"measurement": "Plasma HDL-C", "setting": "[1]; [5]", "result": "19 mg/dL and 34 mg/dL and 32 mg/dL and 37 mg/dL and 35 mg/dL and 21 mg/dL and 38 mg/dL and 41 mg/dL and 6 mg/dL and 31 mg/dL and 26 mg/dL and 39 mg/dL and 22 mg/dL and 29 mg/dL and 8 mg/dL"}, {"measurement": "Plasma LDL-C", "setting": "[1]; [5]", "result": "258 mg/dL and 260 mg/dL and 307 mg/dL and 245 mg/dL and 268 mg/dL and 295 mg/dL and 304 mg/dL and 474 mg/dL and 287 mg/dL and 352 mg/dL and 380 mg/dL and 481 mg/dL and 410 mg/dL and 432 mg/dL and 773 mg/dL"}, {"measurement": "Plasma VLDL-C", "setting": "[1]; [5]", "result": "25 mg/dL (2×) and 23 mg/dL and 37 mg/dL and 20 mg/dL (2×) and 19 mg/dL and 27 mg/dL and 36 mg/dL and 15 mg/dL and 26 mg/dL and 31 mg/dL and 24 mg/dL and 28 mg/dL and 29 mg/dL"}, {"measurement": "HDL-C, Spife (electrophoresis)", "setting": "[1]; Week 4, AVE of test mice 16-30", "result": 25, "unit": "mg/dL"}, {"measurement": "LDL-C, Spife (electrophoresis)", "setting": "[1]; Week 4, AVE of test mice 16-30", "result": 940, "unit": "mg/dL"}, {"measurement": "VLDL-C, Spife (electrophoresis)", "setting": "[1]; Week 4, AVE of test mice 16-30", "result": 33, "unit": "mg/dL"}, {"measurement": "HDL-C, Spife (electrophoresis)", "setting": "[1]; [6]", "result": "18 mg/dL and 20 mg/dL (3×) and 0 mg/dL and 13 mg/dL and 7 mg/dL and 23 mg/dL and 32 mg/dL (3×) and 15 mg/dL and 45 mg/dL and 44 mg/dL and 49 mg/dL"}, {"measurement": "LDL-C, Spife (electrophoresis)", "setting": "[1]; [6]", "result": "745 mg/dL and 866 mg/dL and 918 mg/dL and 1120 mg/dL and 982 mg/dL and 648 mg/dL and 893 mg/dL and 975 mg/dL and 770 mg/dL and 766 mg/dL and 966 mg/dL and 1147 mg/dL and 874 mg/dL and 1171 mg/dL and 1254 mg/dL"}, {"measurement": "VLDL-C, Spife (electrophoresis)", "setting": "[1]; [6]", "result": "35 mg/dL (2×) and 37 mg/dL (2×) and 19 mg/dL and 44 mg/dL (2×) and 18 mg/dL and 23 mg/dL and 39 mg/dL and 41 mg/dL and 28 mg/dL and 31 mg/dL and 30 mg/dL and 32 mg/dL"}, {"measurement": "HDL-C, Spife (electrophoresis)", "setting": "[1]; Week 8, AVE of test mice 16-30", "result": 32, "unit": "mg/dL"}, {"measurement": "LDL-C, Spife (electrophoresis)", "setting": "[1]; Week 8, AVE of test mice 16-30", "result": 1166, "unit": "mg/dL"}, {"measurement": "VLDL-C, Spife (electrophoresis)", "setting": "[1]; Week 8, AVE of test mice 16-30", "result": 84, "unit": "mg/dL"}, {"measurement": "HDL-C, Spife (electrophoresis)", "setting": "[1]; [7]", "result": "42 mg/dL and 34 mg/dL and 27 mg/dL and 33 mg/dL and 19 mg/dL (2×) and 8 mg/dL and 45 mg/dL and 16 mg/dL and 32 mg/dL and 41 mg/dL (2×) and 25 mg/dL and 43 mg/dL and 57 mg/dL"}, {"measurement": "LDL-C, Spife (electrophoresis)", "setting": "[1]; [7]", "result": "1119 mg/dL and 897 mg/dL and 1392 mg/dL and 1071 mg/dL and 1415 mg/dL and 901 mg/dL and 875 mg/dL and 1378 mg/dL and 922 mg/dL and 856 mg/dL and 1317 mg/dL and 1320 mg/dL and 1025 mg/dL and 1382 mg/dL and 1621 mg/dL"}, {"measurement": "VLDL-C, Spife (electrophoresis)", "setting": "[1]; [7]", "result": "101 mg/dL and 73 mg/dL and 86 mg/dL and 79 mg/dL (2×) and 112 mg/dL and 34 mg/dL and 88 mg/dL and 69 mg/dL and 59 mg/dL and 93 mg/dL and 74 mg/dL and 80 mg/dL and 109 mg/dL and 119 mg/dL"}, {"measurement": "HDL-C, Spife (electrophoresis)", "setting": "[1]; [8]", "result": 21, "unit": "mg/dL"}, {"measurement": "LDL-C, Spife (electrophoresis)", "setting": "[1]; [8]", "result": 939, "unit": "mg/dL"}, {"measurement": "VLDL-C, Spife (electrophoresis)", "setting": "[1]; [8]", "result": 44, "unit": "mg/dL"}, {"measurement": "HDL-C, Spife (electrophoresis)", "setting": "[1]; [9]", "result": "38 mg/dL and 20 mg/dL (2×) and 10 mg/dL and 41 mg/dL and 21 mg/dL and 5 mg/dL and 31 mg/dL (2×) and 2 mg/dL (2×) and 40 mg/dL and 28 mg/dL and 1 mg/dL and 23 mg/dL"}, {"measurement": "LDL-C, Spife (electrophoresis)", "setting": "[1]; [9]", "result": "821 mg/dL and 485 mg/dL and 854 mg/dL and 852 mg/dL and 1328 mg/dL and 693 mg/dL and 611 mg/dL and 692 mg/dL and 962 mg/dL and 896 mg/dL and 1275 mg/dL and 1218 mg/dL and 505 mg/dL and 1203 mg/dL and 1688 mg/dL"}, {"measurement": "VLDL-C, Spife (electrophoresis)", "setting": "[1]; [9]", "result": "39 mg/dL and 35 mg/dL and 21 mg/dL (2×) and 43 mg/dL and 71 mg/dL and 32 mg/dL and 33 mg/dL and 26 mg/dL and 63 mg/dL and 76 mg/dL and 36 mg/dL and 30 mg/dL and 83 mg/dL and 46 mg/dL"}, {"measurement": "Plasma LDL-C, in words", "setting": "[1]; [10]", "result": "reduces"}, {"measurement": "Plasma VLDL-C, in words", "setting": "[1]; [10]", "result": "reduces"}, {"measurement": "Thoracic aorta FC (free cholesterol), AVE", "setting": "[2]; group mean of 15 test mice, 12 weeks, vehicle group 7.5", "result": 5.7, "unit": "µg/mg"}, {"measurement": "Thoracic aorta CE (cholesterol ester), AVE", "setting": "[2]; group mean of 15 test mice, 12 weeks, vehicle group 22.6", "result": 14.6, "unit": "µg/mg"}, {"measurement": "Thoracic aorta TC (total cholesterol), AVE", "setting": "[2]; group mean of 15 test mice, 12 weeks, vehicle group 30.1", "result": 20.4, "unit": "µg/mg"}, {"measurement": "Cholesterol esters in the thoracic aorta, in words", "setting": "[2]; [11]", "result": "lower"}, {"measurement": "Free cholesterol in the thoracic aorta, in words", "setting": "[2]; [11]", "result": "lower"}, {"measurement": "Total cholesterol in the thoracic aorta, in words", "setting": "[2]; [11]", "result": "lower"}, {"measurement": "Thoracic aorta CE (cholesterol ester)", "setting": "[2]; [12]", "result": "13.8 μg/mg and 2.7 μg/mg and 30.3 μg/mg and 14.7 μg/mg and 30.7 μg/mg and 14.1 μg/mg and 4.6 μg/mg (2×) and 5.6 μg/mg (2×) and 28.5 μg/mg and 21.3 μg/mg and 18.6 μg/mg and 11.4 μg/mg and 13.0 μg/mg"}, {"measurement": "Thoracic aorta FC (free cholesterol)", "setting": "[2]; [12]", "result": "7.6 μg/mg (2×) and 4.0 μg/mg and 5.1 μg/mg and 3.0 μg/mg (2×) and 8.1 μg/mg and 2.7 μg/mg and 3.5 μg/mg and 14.6 μg/mg and 6.6 μg/mg and 3.8 μg/mg and 3.6 μg/mg and 3.3 μg/mg and 9.5 μg/mg"}, {"measurement": "Thoracic aorta TC (total cholesterol)", "setting": "[2]; [12]", "result": "21.4 µg/mg and 6.7 µg/mg and 35.4 µg/mg and 17.7 µg/mg and 38.8 µg/mg and 16.8 µg/mg and 8.1 µg/mg and 20.1 µg/mg and 35.1 µg/mg and 9.4 µg/mg and 24.9 µg/mg and 21.7 µg/mg and 7.9 µg/mg and 19.0 µg/mg and 22.5 µg/mg"}, {"measurement": "Total lesion area in aortic root 300 μm across aortic valve, AVE", "setting": "[3]; group mean of 15 test mice, 12 weeks, vehicle group 351.77", "result": 282.72}, {"measurement": "Total (mean) lesion area in the aortic root, in words", "setting": "[3]; treated versus vehicle, 12 weeks (Table 9, FIG. 3)", "result": "reduces; also recorded: lower"}]}]}
